In patent publication US8710043B2, “TRPM8 antagonists and their use in treatments” (Amgen Inc., priority 2011, dated 2014):

Experiments:
human TRPM8 = biological target: T1, human TRPM8 (Homo sapiens, UniProt Q7Z2W7); assay: Luminescence readout assay for measuring intracellular calcium, icilin activation; type: cell-based; settings: CHO cells expressing human TRPM8, aequorin luminescence, 1 μM icilin activation; read-out: hTRPM8 IC50
T1 construct: expressed in transfected cells; host or cells: Chinese hamster ovary (CHO) cells, T-REx tetracycline-inducible system, co-transfected with aequorin
T1 sequence (Q7Z2W7 whole entry): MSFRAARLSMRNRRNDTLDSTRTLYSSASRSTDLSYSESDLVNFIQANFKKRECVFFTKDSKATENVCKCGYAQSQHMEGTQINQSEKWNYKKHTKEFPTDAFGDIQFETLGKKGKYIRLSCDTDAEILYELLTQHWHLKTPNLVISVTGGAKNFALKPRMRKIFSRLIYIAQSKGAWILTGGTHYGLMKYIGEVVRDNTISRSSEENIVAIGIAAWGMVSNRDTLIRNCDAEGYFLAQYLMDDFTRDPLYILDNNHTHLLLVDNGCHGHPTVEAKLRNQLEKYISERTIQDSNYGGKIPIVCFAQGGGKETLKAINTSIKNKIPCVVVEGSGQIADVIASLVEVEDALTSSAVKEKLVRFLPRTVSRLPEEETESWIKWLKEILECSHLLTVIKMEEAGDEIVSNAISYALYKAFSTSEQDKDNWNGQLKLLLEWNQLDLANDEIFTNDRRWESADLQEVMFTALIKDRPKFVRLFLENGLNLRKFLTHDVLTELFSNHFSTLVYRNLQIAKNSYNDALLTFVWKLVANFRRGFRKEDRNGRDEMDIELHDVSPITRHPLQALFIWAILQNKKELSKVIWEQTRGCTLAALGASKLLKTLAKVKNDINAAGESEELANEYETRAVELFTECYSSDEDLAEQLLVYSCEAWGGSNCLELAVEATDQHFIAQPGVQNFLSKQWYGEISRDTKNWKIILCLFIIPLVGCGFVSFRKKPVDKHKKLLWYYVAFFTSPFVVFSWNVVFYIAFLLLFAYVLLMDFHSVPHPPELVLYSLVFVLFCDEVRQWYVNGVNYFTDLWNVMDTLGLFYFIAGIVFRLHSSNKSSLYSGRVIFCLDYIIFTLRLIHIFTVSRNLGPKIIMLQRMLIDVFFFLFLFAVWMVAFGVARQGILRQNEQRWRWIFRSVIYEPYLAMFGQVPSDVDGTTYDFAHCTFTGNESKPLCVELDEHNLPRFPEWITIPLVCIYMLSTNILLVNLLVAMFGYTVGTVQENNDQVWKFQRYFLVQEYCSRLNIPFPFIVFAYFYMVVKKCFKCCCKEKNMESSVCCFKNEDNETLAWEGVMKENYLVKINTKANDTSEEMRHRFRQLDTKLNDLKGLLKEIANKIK
Outline: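 The read-out was luminescence reporting intracellular calcium, recorded by a CCD-based luminometer. Compounds were preincubated for 2.5 min before agonist challenge with 1 μM icilin. Human TRPM8 was expressed in a stable T-REx CHO line, induced with 0.5 μg/mL tetracycline the day before.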

[1] = test system: icilin induced wet-dog shakes; assay: Inhibition of icilin induced shaking (wet-dog shakes) in rats; type: in vivo; settings: Rattus norvegicus, po; dose 1 mg/kg p.o., 2 h before icilin; male Sprague Dawley rats; shakes counted for 30 min post-icilin
Procedure: Inhibition of Icilin Induced Shaking in Rats
Example compounds at doses ranging from 0.01 to 3 mg/kg (p.o, suspended in 5% Tween80/Oralplus or suspended in 2% HPMC-1% Tween-80 pH2.2 with MSA, 5 mL/kg) were administered to male Sprague Dawley rats (200-300 g, Harlan, n=6-8/treatment) 2 h before icilin to assess the ability to block the spontaneous wet-dog shake phenomena induced by icilin (i.p., suspended in 100% PEG400 at 0.5 mg/kg, 1 mL/kg or p.o., suspended in 2% HPMC-1% Tween-80 at 3 mg/kg, 2.5 mL/kg). Spontaneous wet-dog shakes were counted manually by two blinded observers or using LABORAS automation (Metris) for 30 min post-icilin.

| IC50 (human TRPM8) | Structure (SMILES) | inhibition in vivo at 1 mg/kg [1] |
| --- | --- | --- |
| 9.8 nM | O=C(N[C@@H](c1ccc(OC(F)(F)F)cc1)c1ncccc1F)c1ccc(=O)[nH]c1 [Example 1, (S)-N-((3-fluoropyridin-2-yl)(4-(trifluoromethoxy)phenyl)methyl)-6-oxo-1,6-dihydropyridine-3-carboxamide] | 100% |
| 14.2 nM | Cn1cc(C(=O)N[C@@H](c2ccc(C(F)(F)F)cc2)c2ncccc2F)ccc1=O [Example 68, (S)-N-((3-fluoropyridin-2-yl)(4-(trifluoromethyl)phenyl)methyl)-1-methyl-6-oxo-1,6-dihydropyridine-3-carboxamide] | 100% |
| 4.5 nM | O=C(N[C@@H](c1ccc(C(F)(F)F)cc1)c1ncccc1F)c1ccc2oc(=O)[nH]c2c1 [Example 76, (S)-N-((3-fluoropyridin-2-yl)(4-(tnfluoromethyl)phenyl)methyl)-2-oxo-2,3-dihydrobenzo[d]oxazole-5-carboxamide] | 100% |
| 5.1 nM | O=C(N[C@@H](c1ccc(OC(F)(F)F)cc1)c1ncccc1F)c1ccc2oc(=O)[nH]c2c1 [Example 79, (S)-N-((3-fluoropyridin-2-yl)(4-(trifluoromethoxy)phenyl)methyl)-2-oxo-2,3-dihydrobenzo[d]oxazole-5-carboxamide] | 99% |
| 13.7 nM | O=C1Cc2cc(C(=O)N[C@@H](c3ccc(OC(F)(F)F)cc3)c3ncccc3F)ccc2N1 [Example 91, (S)-N-((3-fluoropyridin-2-yl)(4-(trifluoromethoxy)phenyl)methyl)-2-oxoindoline-5-carboxamide] | 100% |
| 7.8 nM | Cn1cc(C(=O)N[C@@H](c2ccc(OC(F)(F)F)c(F)c2)c2ncccc2F)ccc1=O [Example 103, (S)-N-((3-fluoro-4-(trifluoromethoxy)phenyl)(3-fluoropyridin-2-yl)methyl)-1-methyl-6-oxo-1,6-dihydropyridine-3-carboxamide] | 97% |
| 13.7 nM | O=C(N[C@@H](c1ccc(OC(F)(F)F)c(F)c1)c1ccccn1)c1ccc(=O)[nH]c1 [Example 293, (S)-N-((3-fluoro-4-(trifluoromethoxy)phenyl)(pyridin-2-yl)methyl)-6-oxo-1,6-dihydropyridine-3-carboxamide] | 96% |
| 18 nM | O=C(N[C@@H](c1ccc(OC(F)(F)F)c(F)c1)c1ccccc1F)c1ccc(=O)[nH]c1 [Example 295, (S)-N-((3-fluoro-4-(trifluoromethoxy)phenyl)(2-fluorophenyl)methyl)-6-oxo-1,6-dihydropyridine-3-carboxamide] | 77% |
| 16.8 nM | O=C(N[C@@H](c1ccc(OC(F)(F)F)c(F)c1)c1ncccc1F)c1ccc(=O)n(CCO)c1 [Example 297, (S)-N-((3-fluoro-4-(trifluoromethoxy)phenyl)(3-fluoropyridin-2-yl)methyl)-1-(2-hydroxyethyl)-6-oxo-1,6-dihydropyridine-3-carboxamide] | 78% |
| 17.5 nM | C[C@@H](O)Cn1cc(C(=O)N[C@@H](c2ccc(OC(F)(F)F)c(F)c2)c2ncccc2F)ccc1=O [Example 299, N-((S)-(3-fluoro-4-(trifluoromethoxy)phenyl)(3-fluoropyridin-2-yl)methyl)-1-((R)-2-hydroxypropyl)-6-oxo-1,6-dihydropyridine-3-carboxamide] | 56% |
| 15.4 nM | Cc1cccnc1[C@@H](NC(=O)c1ccc(=O)n(C)c1)c1ccc(OC(F)(F)F)c(F)c1 [Example 348, (S)-N-((3-fluoro-4-(trifluoromethoxy)phenyl)(3-methylpyridin-2-yl)methyl)-1-methyl-6-oxo-1,6-dihydropyridine-3-carboxamide] | 51% |
| 4.2 nM | O=C(N[C@@H](c1ccc(OC(F)(F)F)cc1)c1ccccn1)c1ccc2oc(=O)[nH]c2c1 [Example 362, (S)-2-oxo-N-(pyridin-2-yl(4-(trifluoromethoxy)phenyl)methyl)-2,3-dihydrobenzo[d]oxazole-5-carboxamide] | 98% |
| 33.7 nM | O=C(N[C@@H](c1ccc(C(F)(F)F)cc1)c1ncccc1F)c1ccc(=O)n(CCO)c1 [Example 370, (S)-N-((3-fluoropyridin-2-yl)(4-(trifluoromethyl)phenyl)methyl)-1-(2-hydroxyethyl)-6-oxo-1,6-dihydropyridine-3-carboxamide] | 50% |
| 20.6 nM | Cc1cc(C(=O)N[C@@H](c2ccc(C(F)(F)F)cc2)c2ncccc2F)c[nH]c1=O [Example 373, (S)-N-((3-fluoropyridin-2-yl)(4-(trifluoromethyl)phenyl)methyl)-5-methyl-6-oxo-1,6-dihydropyridine-3-carboxamide] | 64% |
| 20.7 nM | O=C(N[C@@H](c1ccc(OC(F)(F)F)cc1)c1ccccn1)c1ccc(=O)[nH]c1 [Example 377, (S)-6-oxo-N-(pyridin-2-yl(4-(trifluoromethoxy)phenyl)methyl)-1,6-dihydropyridine-3-carboxamide] | 94% |
| 10.5 nM | O=C(N[C@@H](c1ccc(OC(F)(F)F)cc1F)c1ncccc1F)c1ccc(=O)[nH]c1 [Example 386, (S)-N-((2-fluoro-4-(trifluoromethoxy)phenyl)(3-fluoropyridin-2-yl)methyl)-6-oxo-1,6-dihydropyridine-3-carboxamide 2,2,2-trifluoroacetate] | 97% |
| 9.7 nM | O=C(N[C@@H](c1ccc(OC(F)(F)F)c(F)c1)c1ncccc1F)c1ccc2[nH]c(=O)oc2n1 [Example 426, (S)—N-((3-fluoro-4-(trifluoromethoxy)phenyl)(3-fluoropyridin-2-yl)methyl)-2-oxo-1,2-dihydrooxazolo[5,4-b]pyridine-5-carboxamide] | 53% |
| 22.4 nM | Cn1c(=O)c(=O)n(O)c2ccc(C(=O)N[C@@H](c3ccc(OC(F)(F)F)c(F)c3)c3ncccc3F)cc21 [Example 436, (S)—N-((3-Fluoro-4-(trifluoromethoxy)phenyl)(3-fluoropyridin-2-yl)methyl)-1-hydroxy-4-methyl-2,3-dioxo-1,2,3,4-tetrahydroquinoxaline-6-carboxamide] | – |
| 225 nM | O=C(N[C@@H](c1ccc(OC(F)(F)F)c(F)c1)c1ncccc1F)c1cc2[nH]c(=O)oc2cn1 [Example 437, (S)—N-((3-Fluoro-4-(trifluoromethoxy)phenyl)(3-fluoropyridin-2-yl)methyl)-2-oxo-1,2-dihydrooxazolo[5,4-c]pyridine-6-carboxamide] | – |
| 11.4 nM | O=C(N[C@@H](c1ccc(OC(F)(F)F)c(F)c1)c1ncccc1F)c1cc2oc(=O)[nH]c2cn1 [Example 438, (S)—N-((3-Fluoro-4-(trifluoromethoxy)phenyl)(3-fluoropyridin-2-yl)methyl)-2-oxo-2,3-dihydrooxazolo[4,5-c]pyridine-6-carboxamide] | – |
